EC50 data for 61 molecules are collected here from US12037333B2, “Pyridopyrazine and pyridotriazine inhibitors of influenza virus replication” (priority 2018, dated 2024).

Broadly, the EC50 is the concentration at which the effect is half-maximal.

One assay has as its system Influenza type B (cell culture adapted strain B/Lee/40, ATCC VR-1535). Kind of assay: Influenza antiviral assay: inhibition of virus-induced cytopathic effects (CPE) in MDCK cells, XTT dye reduction. It is filed as cell-based. The following applies: Influenza B virus, MDCK, 96 h, strain B/Lee/40, MDCK cells, CPE inhibition at 4 days. For orientation: Damage to the host cells serves as the signal in cytopathic effect assays.
On to `CN1CN(C23c4ccccc4CC2Cc2c3ccc(F)c2Cl)n2ccc(=O)c(O)c2C1=O` (stereo not shown) [Compound A46, 1-(1-Chloro-2-fluoro-9a,10-dihydroindeno[1,2-a]inden-4b(9H)-yl)-5-hydroxy-3-methyl-2,3-dihydro-1H-pyrido[2,1-f][1,2,4]triazine-4,6-dione], for which the concentration giving a half-maximal response (EC50) is below 0.125 µM.
In turn, `CCN1CN(C23c4ccccc4CC2Cc2c3ccc(F)c2Cl)n2ccc(=O)c(O)c2C1=O` (stereo not shown) [Compound A47] returned an EC50 of 0.125 to 0.25 µM.
Molecule `CCOC12Cc3ccccc3C1(N1CN(CC)C(=O)c3c(O)c(=O)ccn31)c1ccccc1C2` (stereo not shown) [Compound A48, 1-(9a-Ethoxy-9a,10-dihydroindeno[1,2-a]inden-4b(9H)-yl)-3-ethyl-5-hydroxy-2,3-dihydro-1H-pyrido[2,1-f][1,2,4]triazine-4,6-dione] registered an EC50 below 0.125 µM.
Take `COCCN1CN(C23c4cccc(F)c4CC2Cc2c(F)cccc23)n2ccc(=O)c(O)c2C1=O` (stereo not shown) [Compound A49]: the half-maximal effective concentration (EC50) is below 0.125 µM.
On to `CC(C)N1CN(C23c4ccccc4CC2(C)Cc2ccccc23)n2ccc(=O)c(O)c2C1=O` (stereo not shown) [Compound A50, 5-hydroxy-3-isopropyl-1-(9a-methyl-9a,10-dihydroindeno[1,2-a]inden-4b(9H)-yl)-2,3-dihydro-1H-pyrido[2,1-f] [1,2,4] triazine-4,6-dione], for which the EC50 is below 0.125 µM.
In turn, `CCN1CN(C23c4cccc(F)c4CC2(C)Cc2c(F)cccc23)n2ccc(=O)c(O)c2C1=O` (stereo not shown) [Compound A51] displayed a half-maximal effective concentration (EC50) below 0.125 µM.
On the same count and under the same terms, next, `CCN1CN(C23c4ccccc4CC2Cc2ccc(F)cc23)n2ccc(=O)c(O)c2C1=O` (stereo not shown) [Compound A52]: below 0.125 µM.
Same read-out and setting: then `CN1CN(C23c4ccccc4CC2Cc2ccc(F)cc23)n2ccc(=O)c(O)c2C1=O` (stereo not shown) [Compound A53], with below 0.125 µM; and `CN1CN(C23c4cccc(F)c4CC2(C)Cc2c(F)cccc23)n2ccc(=O)c(O)c2C1=O` (stereo not shown) [Compound A54], with below 0.125 µM.
Same read-out and setting: then `CCN1CN(C23c4ccccc4CC2Cc2c(Cl)cccc23)n2ccc(=O)c(O)c2C1=O` (stereo not shown) [Compound A55], with below 0.125 µM.
Turning to `CCN1CN(C23c4ccccc4CC2(CC)Cc2c3ccc(F)c2F)n2ccc(=O)c(O)c2C1=O` (stereo not shown) [Compound A56], the EC50 is below 0.125 µM.
As for `CCOC12Cc3ccccc3C1(N1CN(C)C(=O)c3c(O)c(=O)ccn31)c1ccccc1C2` (stereo not shown) [Compound A57], the EC50 is below 0.125 µM.
On to `O=C1c2c(O)c(=O)ccn2N(C23c4cccc(F)c4CC2Cc2c(F)cccc23)CN1CCF` (stereo not shown) [Compound A58], for which the EC50 is below 0.125 µM.
As to `CN1C(=O)c2c(O)c(=O)ccn2N(C23c4cccc(F)c4CC2Cc2c(F)cccc23)C1CO` (stereo not shown) [Compound A59], the concentration for a half-maximal effect (EC50) was below 0.125 µM.
Still for that read-out and setting: then `CC1N(C)C(=O)c2c(O)c(=O)ccn2N1C12c3ccccc3CC1Cc1c(F)cccc12` (stereo not shown) [Compound A60], with below 0.125 µM; and `O=C1c2c(O)c(=O)ccn2N(C23c4ccccc4CC2Cc2c3ccc(F)c2F)CN1C1CC1` (stereo not shown) [Compound A61], with below 0.125 µM.
On the same count and under the same terms, next, `COC12Cc3ccccc3C1(N1CN(C)C(=O)c3c(O)c(=O)ccn31)c1ccccc1C2` (stereo not shown) [Compound A62]: below 0.125 µM; `CN1CN(C23c4ccccc4CC2(C(F)F)Cc2ccccc23)n2ccc(=O)c(O)c2C1=O` (stereo not shown) [Compound A63]: below 0.125 µM; `CC1N(C)C(=O)c2c(O)c(=O)ccn2N1C12c3ccccc3CC1Cc1c2ccc(F)c1F` (stereo not shown) [Compound A64]: below 0.125 µM.
Still for that read-out and setting: next, `O=C1c2c(O)c(=O)ccn2N(C23c4ccccc4CC2Cc2c(F)cccc23)CN1C1CC1` (stereo not shown) [Compound A65]: below 0.125 µM; `CCN1CN(C23c4cccc(C)c4CC2Cc2c(F)cccc23)n2ccc(=O)c(O)c2C1=O` (stereo not shown) [Compound A66]: below 0.125 µM; `Cc1cccc2c1CC1Cc3c(F)cccc3C21N1CN(C)C(=O)c2c(O)c(=O)ccn21` (stereo not shown) [Compound A67]: below 0.125 µM.
For the molecule `O=C1c2c(O)c(=O)ccn2N(C23c4ccccc4CC2Cc2c(F)cccc23)CN1CCF` (stereo not shown) [Compound A68], the concentration giving a half-maximal response (EC50) is below 0.125 µM.
Same read-out and setting: then `COCCN1CN(C23c4ccccc4CC2Cc2c(F)cccc23)n2ccc(=O)c(O)c2C1=O` (stereo not shown) [Compound A69], with below 0.125 µM.
Same read-out and setting: next, `COCCN1CN(C23c4ccccc4CC2Cc2c3ccc(F)c2F)n2ccc(=O)c(O)c2C1=O` (stereo not shown) [Compound A70]: below 0.125 µM; `O=C1c2c(O)c(=O)ccn2N(C23c4cccc(F)c4CC2Cc2c(F)cccc23)CN1CC(F)F` (stereo not shown) [Compound A71]: below 0.125 µM; `O=C1c2c(O)c(=O)ccn2N(C23c4cccc(F)c4CC2Cc2c(F)cccc23)CN1CCCF` (stereo not shown) [Compound A72]: below 0.125 µM.
Same read-out and setting: then `CC1N(C)C(=O)c2c(O)c(=O)ccn2N1C12c3cccc(F)c3CC1Cc1c(F)cccc12` (stereo not shown) [Compound A73], with below 0.125 µM; and `O=C1c2c(O)c(=O)ccn2N(C23c4ccccc4CC2Cc2c3ccc(F)c2F)CN1CCF` (stereo not shown) [Compound A74], with below 0.125 µM.
In the case of `O=C1c2c(O)c(=O)ccn2N(C23c4ccccc4CC2Cc2c(F)cccc23)CN1CC1CCOCC1` (stereo not shown) [Compound A75], the 50% effective concentration (EC50) is below 0.125 µM.
Still for that read-out and setting: next, `O=C1c2c(O)c(=O)ccn2N(C23c4cccc(F)c4CC2Cc2c(F)cccc23)CN1CC1CC1` (stereo not shown) [Compound A76]: below 0.125 µM; `CCN1CN(C23c4ccccc4CC2Cc2c3ccc(F)c2C)n2ccc(=O)c(O)c2C1=O` (stereo not shown) [Compound A77]: 0.125 to 0.25 µM.
Still for that read-out and setting: next, `Cc1c(F)ccc2c1CC1Cc3ccccc3C21N1CN(C)C(=O)c2c(O)c(=O)ccn21` (stereo not shown) [Compound A78]: below 0.125 µM; `O=C1c2c(O)c(=O)ccn2N(C23c4ccccc4CC2Cc2c(F)cccc23)CN1CCCF` (stereo not shown) [Compound A79]: below 0.125 µM; `O=C1c2c(O)c(=O)ccn2N(C23c4ccccc4CC2Cc2c3ccc(F)c2F)CN1CCCF` (stereo not shown) [Compound A80]: below 0.125 µM.
For `O=C1c2c(O)c(=O)ccn2N(C23c4cccc(F)c4CC2Cc2c(F)cccc23)CN1CC1CCOCC1` (stereo not shown) [Compound A81], the half-maximal effective concentration (EC50) was 0.125 to 0.25 µM.
Still for that read-out and setting: then `CCN1CN(C23c4ccccc4CC2Cc2c(C)cccc23)n2ccc(=O)c(O)c2C1=O` (stereo not shown) [Compound A82], with 0.125 to 0.25 µM; and `O=C1c2c(O)c(=O)ccn2N(C23c4ccccc4CC2Cc2c(F)cccc23)CN1CC(F)F` (stereo not shown) [Compound A83], with below 0.125 µM.
The same measure, in the same setting: next, `O=C1c2c(O)c(=O)ccn2N(C23c4ccccc4CC2Cc2c3ccc(F)c2F)CN1CC(F)F` (stereo not shown) [Compound A84]: 0.125 to 0.25 µM; `Cc1ccc2c(c1F)CC1Cc3ccccc3C21N1CN(C)C(=O)c2c(O)c(=O)ccn21` (stereo not shown) [Compound A85]: 0.25 to 0.375 µM; `O=C1c2c(O)c(=O)ccn2N(C23c4cccc(F)c4CC2Cc2c(F)cccc23)CN1CCc1ccccc1` (stereo not shown) [Compound A86]: below 0.125 µM.
As for `O=C1c2c(O)c(=O)ccn2N(C23c4ccccc4CC2Cc2c(F)cccc23)CN1CCc1ccccc1` (stereo not shown) [Compound A87], the concentration for a half-maximal effect (EC50) is below 0.125 µM.
On the same count and under the same terms, next, `CC(C)N1CN(C23c4cccc(F)c4CC2(C)Cc2c(F)cccc23)n2ccc(=O)c(O)c2C1=O` (stereo not shown) [Compound A89]: 0.375 to 0.5 µM; `CC(CCN1CN(C23c4ccccc4CC2Cc2c3ccc(F)c2F)n2ccc(=O)c(O)c2C1=O)c1ccccc1` (stereo not shown) [Compound A91]: 0.125 to 0.25 µM.
On the same count and under the same terms, next, `O=C1c2c(O)c(=O)ccn2N(C23c4ccccc4CC2Cc2c3ccc(F)c2F)CN1C1CCC1` (stereo not shown) [Compound A92, 3-Cyclobutyl-1-(1,2-difluoro-9a,10-dihydroindeno[1,2-a]inden-4b(9H)-yl)-5-hydroxy-2,3-dihydro-1H-pyrido[2,1-f][1,2,4]triazine-4,6-dione]: 0.25 to 0.375 µM; `O=C1c2c(O)c(=O)ccn2N(C23c4ccccc4CC2Cc2c(Cl)cccc23)CN1C1CC1` (stereo not shown) [Compound A93]: 0.125 to 0.25 µM; `CC1N(C)C(=O)c2c(O)c(=O)ccn2N1C12c3ccccc3CC1Cc1c(Cl)cccc12` (stereo not shown) [Compound A94]: 0.25 to 0.375 µM.
In the case of `CCN1C(=O)c2c(O)c(=O)ccn2N(C23c4ccccc4CC2Cc2c(Cl)cccc23)C1C` (stereo not shown) [Compound A95], the EC50 was below 0.125 µM.
As for `CN1CN(C23c4cc(F)ccc4CC2Cc2c(Cl)cccc23)n2ccc(=O)c(O)c2C1=O` (stereo not shown) [Compound A96], the EC50 is below 0.125 µM.
On the same count and under the same terms, then `CCN1CN(C23c4ccccc4CC2Cc2c3ccc(C)c2F)n2ccc(=O)c(O)c2C1=O` (stereo not shown) [Compound A98], with below 0.125 µM.
Still for that read-out and setting: then `O=C1c2c(O)c(=O)ccn2N(C23c4ccccc4CC2Cc2c3ccc(F)c2F)CN1CC1CCCCC1` (stereo not shown) [Compound A99], with 0.25 to 0.375 µM; and `O=C1c2c(O)c(=O)ccn2N(C23c4ccccc4CC2Cc2c3ccc(F)c2F)CN1CC1CCCC1` (stereo not shown) [Compound A100], with 0.25 to 0.375 µM; and `COCCN1CN(C23c4ccccc4CC2Cc2c(Cl)cccc23)n2ccc(=O)c(O)c2C1=O` (stereo not shown) [Compound A101], with below 0.125 µM.
Molecule `O=C1c2c(O)c(=O)ccn2N(C23c4ccccc4CC2Cc2c(Cl)cccc23)CN1CCCF` (stereo not shown) [Compound A102] returned an EC50 below 0.125 µM.
Same read-out and setting: next, `O=C1c2c(O)c(=O)ccn2N(C23c4ccccc4CC2Cc2c(Cl)cccc23)CN1C1CCC1` (stereo not shown) [Compound A103]: 0.125 to 0.25 µM; `O=C1c2c(O)c(=O)ccn2N(C23c4ccccc4CC2Cc2c(Cl)cccc23)CN1CC1CCCC1` (stereo not shown) [Compound A104]: 0.125 to 0.25 µM; `O=C1c2c(O)c(=O)ccn2N(C23c4ccccc4CC2Cc2c(Cl)cccc23)CN1CC(F)F` (stereo not shown) [Compound A105]: below 0.125 µM.

The assay is the same for the next values; noted with them: strain B/Lee/40, MDCK cells, CPE inhibition at 4 days.
Molecule `CCN1CN(C23c4cccc(F)c4CC2Cc2c(F)cccc23)n2ccc(=O)c(O)c2C1=O` (stereo not shown) [Compound A34] showed an EC50 above 0.5 µM.
Take `CCN1CN(C23c4cccc(F)c4CC2Cc2c(F)cccc23)n2ccc(=O)c(O)c2C1=O` (stereo not shown) [Compound A43]: the EC50 was below 0.125 µM.
For the molecule `CCN1CN(C23c4ccccc4CC2Cc2c3ccc(F)c2F)n2ccc(=O)c(O)c2C1=O` (stereo not shown) [Compound A45], the 50% effective concentration (EC50) was below 0.125 µM.
On to `CN1CN(C23c4ccccc4CC2Cc2c3ccc(F)c2Cl)n2ccc(=O)c(O)c2C1=O` (stereo not shown) [Compound A90], for which the concentration giving a half-maximal response (EC50) is below 0.125 µM.
